From US8029920B2, “1,3,5-tris(diarylamino)benzenes and use thereof” (Bando Chemical Industries, Ltd, priority 2006, dated 2011)

How the values were obtained:
[1] = Differential scanning calorimetry (DSC), glass transition temperature; format: physicochemical
From the text: Differential Scanning Calorimetry (DSC):
(§1) The compound (3) is excellent in heat resistance.
The compound is excellent in heat resistance.

[2] = Thermogravimetric measurement/differential thermal analysis (TG/DTA); format: physicochemical
Experimental: Thermogravimetric Measurement/Differential Thermal Analysis (TG/DTA):
as §1
(§2) The residual on the vacuum evaporation boat before and after vacuum evaporation of the compound (3) was analyzed by high performance liquid chromatography, showing that the residual on the vacuum evaporation boat before and after vacuum evaporation was in fact found to have a purity of 100.00%.
(§3) In contrast, the compound (2) starts decomposition at a temperature of 412° C. as shown by the TG/DTA measurement. Since the temperature is close to the above-mentioned vacuum evaporation temperature (415° C.), it is expected that the compound (2) is accompanied by thermal decomposition at the vacuum evaporation temperature.
The compound (4) is excellent in heat resistance.

[3] = Vacuum evaporation temperature test with HPLC of boat residual; format: physicochemical; conditions: for purity of residual on the vacuum evaporation boat after vacuum evaporation / purity of residual on the vacuum evaporation boat before vacuum evaporation: HPLC; for purity of residual on the vacuum evaporation boat after vacuum evaporation: after vacuum evaporation (thermal stability); for temperature needed to obtain an evaporation rate of 5 Å/second: vacuum evaporation
Experimental: (Vacuum Evaporation Temperature Test)
as §2, §3

[4] = Solubility test in heated toluene; format: physicochemical
Experimental: 500 mL of heated toluene was needed to dissolve 1 g of the compound (2), but 50 mL of heated toluene was needed to dissolve 1 g of the compound (3).
500 mL of heated toluene was needed to dissolve 1 g of the compound (2), but 50 mL of heated toluene was needed to dissolve 1 g of the compound (4).

Cyclic voltammetry (CV) = format: physicochemical; conditions: for stability in repetition: repeated oxidation-reduction
[5] = prior art, JP-A-2004-155754; cited from earlier work

For `Cc1ccc(-c2ccc(N(c3ccc(C)cc3)c3cc(N(c4ccc(C)cc4)c4ccc(-c5ccc(C)cc5)cc4)cc(N(c4ccc(C)cc4)c4ccc(-c5ccc(C)cc5)cc4)c3)cc2)cc1` [compound (1), 1,3,5-tris(N-(4′-methyl-4-biphenylyl)-N-(4-methylphenyl)amino)benzene, reference compound], the “glass transition temperature (Tg)” value [1] was 103 °C.
For `Cc1ccc(-c2ccc(N(c3ccc(-c4ccc(C)cc4)cc3)c3cc(N(c4ccc(-c5ccc(C)cc5)cc4)c4ccc(-c5ccc(C)cc5)cc4)cc(N(c4ccc(-c5ccc(C)cc5)cc4)c4ccc(-c5ccc(C)cc5)cc4)c3)cc2)cc1` [compound (2), 1,3,5-tris(N,N-bis(4′-methyl-4-biphenylyl)amino)benzene, reference compound], the “glass transition temperature (Tg)” value [1] was “no glass transition temperature”, the “temperature at which decomposition starts” value [2] was 412 °C and the “purity of residual on the vacuum evaporation boat after vacuum evaporation” value (shortened to “purity of residual … after vacuum evaporation”) [3] was 95.87%. For the same molecule, the “purity of residual on the vacuum evaporation boat before vacuum evaporation” value [3] was 99.03%, the “temperature needed to obtain an evaporation rate of 5 Å/second” value (“temperature needed” for short) [3] was 415 °C and the “heated toluene needed to dissolve 1 g of the compound” value (shortened to “heated toluene needed to dissolve 1 g”) [4] was 500 mL.
In the case of `Cc1ccc(-c2ccc(N(c3ccc(-c4ccc(C)cc4)cc3)c3cc(N(c4ccc(C)cc4)c4ccc(C)cc4)cc(N(c4ccc(-c5ccc(C)cc5)cc4)c4ccc(-c5ccc(C)cc5)cc4)c3)cc2)cc1` [compound (3), N,N,N′,N′-tetrakis(4′-methyl-4-biphenylyl)-N″,N″-bis(4-methylphenyl)benzene-1,3,5-triamine], the “glass transition temperature (Tg)” value [1] is reported as 179 °C, the decomposition temperature [2] is reported as 478 °C and the “temperature at which decomposition starts” value [2] is reported as 430 °C. For the same molecule, the “purity of residual … after vacuum evaporation” value [3] was 100.00%, the “purity of residual on the vacuum evaporation boat before vacuum evaporation” value [3] was 100.00% and the “temperature needed” value [3] was 350 °C. The “heated toluene needed to dissolve 1 g” value [4] was 50 mL, the oxidation potential (Cyclic voltammetry (CV)) was 0.52 V (vs. Ag/Ag^+) and the “reversibility of oxidation-reduction process” value (Cyclic voltammetry (CV)) was “excellent”. The stability in repetition (Cyclic voltammetry (CV)) was “good”.
In the case of `Cc1ccc(N(c2ccc(C)cc2)c2cc(N(c3ccc(-c4ccccc4)cc3)c3ccc(-c4ccccc4)cc3)cc(N(c3ccc(-c4ccccc4)cc3)c3ccc(-c4ccccc4)cc3)c2)cc1` [compound (4), N,N,N′,N′-tetrakis(4-biphenylyl)-N″,N″-bis(4-methylphenyl)benzene-1,3,5-triamine], the “glass transition temperature (Tg)” value [1] is reported as 133 °C, the decomposition temperature [2] is reported as 498 °C and the “temperature at which decomposition starts” value [2] is reported as 498 °C. For the same molecule, the “purity of residual … after vacuum evaporation” value [3] was 99.64%, the “purity of residual on the vacuum evaporation boat before vacuum evaporation” value [3] was 99.30% and the “temperature needed” value [3] was 340 °C. For the same molecule, the “heated toluene needed to dissolve 1 g” value [4] was 50 mL, the oxidation potential (Cyclic voltammetry (CV)) was 0.54 V (vs. Ag/Ag^+) and the “reversibility of oxidation-reduction process” value (Cyclic voltammetry (CV)) was “excellent”. For the same molecule, the stability in repetition (Cyclic voltammetry (CV)) was “good”.
In the case of `Cc1ccc(N(c2ccc(-c3ccccc3)cc2)c2cc(N(c3ccc(C)cc3)c3ccc(-c4ccccc4)cc3)cc(N(c3ccc(C)cc3)c3ccc(-c4ccccc4)cc3)c2)cc1` [p-MTPBAB, 1,3,5-tris(N-(p-methylphenyl)-N-(4-biphenylyl)amino)benzene], the glass transition temperature [5] is listed as 98 °C.
In the case of `Cc1ccc(N(c2cc(N(c3ccc(C)cc3)c3cccc4ccccc34)cc(N(c3ccc(C)cc3)c3cccc4ccccc34)c2)c2cccc3ccccc23)cc1` [p-MTPNAB, 1,3,5-tris(N-(p-methylphenyl)-N-(1-naphthyl))-amino benzene], the glass transition temperature [5] is listed as 87 °C.
